From patent publication US9474790B2, “Stable, protracted GLP-1/glucagon receptor co-agonists for medical use” (Novo Nordisk A/S, priority 2013, dated 2016) come the findings set out here.

A word on the EC50: it is the concentration at which the effect is half-maximal. The term IC50 denotes the concentration needed to halve the response being measured.

Numbered stars: 1 amine (or outer) side, 2 acyl side, 3 side chain; on linkers, the order of the positions; unused ones are H or OH. Square brackets hold non-standard residues; d marks the D form. Side chains are listed from the residue outwards. Peptide text beside a SMILES is read from it. * marks the point of attachment. C18 diacid = O=C(O)CCCCCCCCCCCCCCCCC(=O)*; γGlu = O=C(O)[C@H](CCC(=O)[*:2])N[*:1]; AEEA = NCCOCCOCC(=O)O; Aib = CC(C)(N)C(=O)O

Experiment [1] has as its target T1, human GLP-1 receptor (Homo sapiens, UniProt P43220).
T1 construct: expressed in transfected cells; host or cells: BHK cells (parent BHKTS13), clone FCW467-12A/KZ10-1, with CRE luciferase
Briefly: GLP-1 receptor potency, CRE luciferase reporter gene assay in BHK cells. The class given is cell-based. The note with it: BHK cells expressing human GLP-1 receptor, read-out: EC50 GLP-1R. The method in brief: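 Potency as cAMP-driven firefly luciferase signal after 3 h, 37° C exposure to 10-fold dilutions (final 1×10EE-13–1×10EE-6 M). Stable hGLP-1R/CRE-luc BHK clone, 5×10EE3 cells/well, medium containing 2% ovalbumin and 0.2% Pluronic F-68; EC50 (pM) from variable-slope non-linear regression.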

The next experiment deals with T2, human glucagon receptor (Homo sapiens, UniProt P47871).
T2 construct: expressed in transfected cells; host or cells: BHK cells (parent BHK570, CRE luciferase clone BHK/KZ10-20-48), clone pLJ6'-4-25
T2 sequence (P47871 26-477): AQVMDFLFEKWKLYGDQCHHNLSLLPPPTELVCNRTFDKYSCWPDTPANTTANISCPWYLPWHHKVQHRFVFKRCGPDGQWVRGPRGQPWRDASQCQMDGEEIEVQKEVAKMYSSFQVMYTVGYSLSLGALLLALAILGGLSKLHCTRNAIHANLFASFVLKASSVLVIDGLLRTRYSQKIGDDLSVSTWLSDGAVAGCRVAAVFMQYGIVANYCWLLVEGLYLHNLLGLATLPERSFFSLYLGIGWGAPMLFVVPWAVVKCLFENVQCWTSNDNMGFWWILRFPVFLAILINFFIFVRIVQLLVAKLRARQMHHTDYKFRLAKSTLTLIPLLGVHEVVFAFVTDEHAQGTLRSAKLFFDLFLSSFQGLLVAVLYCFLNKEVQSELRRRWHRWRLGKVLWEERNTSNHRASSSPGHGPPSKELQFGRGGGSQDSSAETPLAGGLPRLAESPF
Briefly: Glucagon receptor potency, CRE luciferase reporter gene assay in BHK cells. Type of experiment: cell-based. The note with it: BHK cells expressing human glucagon receptor, read-out: EC50 GlucR. The method, then:
The purpose of this example was to test the potency, of the glucagon derivatives of the invention, in vitro. The in vitro potency is the measure of human GLP-1 receptor or glucagon receptor activation, respectively, in a whole cell assay.
In vitro potency was determined by measuring the response of human GLP-1 or glucagon receptor, respectively, in a reporter gene assay. The assay was performed in a stably transfected BHK cell line that expresses either the human GLP-1 receptor or the human glucagon receptor and contains the DNA for the cAMP response element (CRE) coupled to a promoter and the gene for firefly luciferase (CRE luciferase). […] When assay incubation was completed, the luciferase substrate (luciferin) was added and the enzyme converted luciferin to oxyluciferin and produces bioluminescence. The luminescence was measured as the readout for the assay.
The cells used in this assay (clone pLJ6′-4-25) were BHK cells with BHK570 as a parent cell line expressing the CRE luciferase gene (clone BHK/KZ10-20-48) and were established by further transfection with the human glucagon receptor (clone pLJ6′ in pHZ-1 vector).
The cells were cultured at 5% CO2 in DMEM medium with 10% FBS, 1×GlutaMAX, 1 mg/ml G418, 240 nM MTX (methotrexate) and 1% pen/strep (penicillin/streptomycin). They were aliquoted and stored in liquid nitrogen. Before each assay, an aliquot was taken up and washed three times in PBS before being suspended at the desired concentration in assay medium. For 96-well plates the suspension was made to give a final concentration of 5×10EE3 cells/well.
The following chemicals were used in the assay: Pluronic F-68 (10%) (Gibco 2404), ovalbumin (Sigma A5503), DMEM w/o phenol red (Gibco 11880-028), 1 M Hepes (Gibco 15630), Glutamax 100× (Gibco 35050) and steadylite plus (PerkinElmer 6016757).
Assay Medium consisted of DMEM w/o phenol red, 10 mM Hepes, 1× GlutaMAX, 2% Ovalbumin and 0.2% Pluronic F-68.
Cell stocks were thawed in a 37° C. water bath. Cells were washed three times in PBS. The cells were counted and adjusted to 5×10EE3 cells/50 μl (1×10EE5 cells/ml) in Assay Medium. A 50 μl aliquot of cells was transferred to each well in the assay plate.
Stocks of the test compounds and reference compounds were diluted to a concentration of […] in Assay Medium. Compounds were diluted 10-fold to give the following concentrations: 2×10EE-6 M, 2×10EE-7 M, 2×10EE-8 M; 2×10EE-9 M, 2×10EE-10 M, 2×10EE-11 M, 2×10EE-12 M and 2×10EE-13 M. For each compound a blank assay medium control was also included.
A 50 μl aliquot of compound or blank was transferred from the dilution plate to the assay plate. Compounds were tested at the following final concentrations: 1×10EE-6 M, 1×10EE-7 M, 1×10EE-8 M; 1×10EE-9 M, 1×10EE-10 M, 1×10EE-11 M and 1×10EE-12 M and 1×10EE-13 M.
The assay plate was incubated for 3 h in a 5% CO2 incubator at 37° C. The assay plate was removed from the incubator and allowed to stand at room temperature for 15 min. A 100 μl aliquot of steadylite plus reagent was added to each well of the assay plate (reagent is light sensitive). Each assay plate was covered with aluminum foil to protect it from light and shaken for 30 min at room temperature. Each assay plate was read in a Perkin Elmer TopCount NXT instrument.
The data from the TopCount instrument was transferred to GraphPad Prism software. The software performed a non-linear regression (log(agonist) vs response-Variable slope (four parameter)). EC50 values were calculated by the software and reported in pM.

In experiment [2] the target is T1, human GLP-1 receptor. Briefly: GLP-1 receptor binding, 125I-GLP-1 displacement SPA on isolated membranes. The note with it: displacement of 125I-GLP-1 from membranes; read-out: IC50 GLP-1R. The method in brief:
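Test derivatives, serially diluted, competed with 125I-GLP-1(7-36)NH2 for the human GLP-1 receptor on BHK membranes, read by WGA-bead scintillation proximity after 2 h at 30°C, pH 7.4 HEPES/EGTA/MgCl2 buffer. Final serum albumin was either ≤0.001% or 2.0%; IC50 from non-linear fit.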
For orientation: In a radioligand displacement assay an active substance lowers the binding of a labelled ligand.

T1 sequence (P43220 24-463): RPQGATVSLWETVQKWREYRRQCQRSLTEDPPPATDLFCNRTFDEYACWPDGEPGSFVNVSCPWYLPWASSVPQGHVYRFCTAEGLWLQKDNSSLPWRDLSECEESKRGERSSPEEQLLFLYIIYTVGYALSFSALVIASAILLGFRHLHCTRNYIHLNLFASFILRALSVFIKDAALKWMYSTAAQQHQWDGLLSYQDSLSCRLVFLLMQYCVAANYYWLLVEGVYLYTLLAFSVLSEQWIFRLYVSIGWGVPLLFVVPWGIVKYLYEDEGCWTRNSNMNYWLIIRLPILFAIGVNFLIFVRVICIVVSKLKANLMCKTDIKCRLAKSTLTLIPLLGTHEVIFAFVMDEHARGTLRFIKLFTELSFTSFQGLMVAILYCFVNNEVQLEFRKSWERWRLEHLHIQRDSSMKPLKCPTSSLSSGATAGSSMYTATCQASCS

For `CC(C)C[C@H](NC(=O)[C@H](Cc1ccc(O)cc1)NC(=O)[C@H](CCCCN)NC(=O)[C@H](CO)NC(=O)[C@H](CC(C)C)NC(=O)[C@H](CC(=O)O)NC(=O)[C@H](CO)NC(=O)[C@@H](NC(=O)[C@H](Cc1ccccc1)NC(=O)[C@@H](NC(=O)CNC(=O)[C@H](CCC(N)=O)NC(=O)C(C)(C)NC(=O)[C@@H](N)Cc1c[nH]cn1)[C@@H](C)O)[C@@H](C)O)C(=O)N[C@@H](CC(=O)O)C(=O)N[C@@H](CO)C(=O)N[C@@H](CCCNC(=N)N)C(=O)N[C@@H](CCCNC(=N)N)C(=O)N[C@@H](C)C(=O)N[C@@H](CCCNC(=N)N)C(=O)N[C@@H](CC(=O)O)C(=O)N[C@@H](Cc1ccccc1)C(=O)N[C@H](C(=O)N[C@@H](CCC(N)=O)C(=O)N[C@@H](Cc1c[nH]c2ccccc12)C(=O)N[C@@H](CC(C)C)C(=O)N[C@@H](CC(C)C)C(=O)N[C@@H](CCCCNC(=O)CC[C@H](NC(=O)CC[C@H](NC(=O)COCCOCCNC(=O)COCCOCCNC(=O)CC[C@H](NC(=O)CCCCCCCCCCCCCCCCC(=O)O)C(=O)O)C(=O)O)C(=O)O)C(=O)N[C@H](C(N)=O)[C@@H](C)O)C(C)C` [Example 4, N^ε28-[(4S)-4-carboxy-4-[[(4S)-4-carboxy-4-[[2-[2-[2-[[2-[2-[2-[[(4S)-4-carboxy-4-(17-carboxyheptadecanoylamino)butanoyl]amino]ethoxy]ethoxy]acetyl]amino]ethoxy]ethoxy]acetyl]amino]butanoyl]amino]butanoyl]-[Aib2,Leu10,Arg20,Leu27,Lys28]-Glucagon amide] (H-H[Aib]QGTFTSDLSKYLDSRRARDFVQWLLK([γGlu-γGlu-AEEA-AEEA-γGlu-C18 diacid])T-NH2; N-terminus assumed), the values for the EC50 on human GLP-1 receptor [1] and at human glucagon receptor were 0.004 nM and 0.016 nM, respectively.
Consider `CC(C)C[C@H](NC(=O)[C@H](Cc1ccc(O)cc1)NC(=O)[C@H](CCCCN)NC(=O)[C@H](CO)NC(=O)[C@H](CC(C)C)NC(=O)[C@H](CC(=O)O)NC(=O)[C@H](CO)NC(=O)[C@@H](NC(=O)[C@H](Cc1ccccc1)NC(=O)[C@@H](NC(=O)CNC(=O)[C@H](CCC(N)=O)NC(=O)C(C)(C)NC(=O)[C@@H](N)Cc1c[nH]cn1)[C@@H](C)O)[C@@H](C)O)C(=O)N[C@@H](CC(=O)O)C(=O)N[C@@H](CCCCNC(=O)CC[C@H](NC(=O)CC[C@H](NC(=O)COCCOCCNC(=O)COCCOCCNC(=O)CC[C@H](NC(=O)CCCCCCCCCCCCCCCCC(=O)O)C(=O)O)C(=O)O)C(=O)O)C(=O)N[C@@H](CCCNC(=N)N)C(=O)N[C@@H](CCCNC(=N)N)C(=O)N[C@@H](C)C(=O)N[C@@H](CCCNC(=N)N)C(=O)N[C@@H](CC(=O)O)C(=O)N[C@@H](Cc1ccccc1)C(=O)N[C@H](C(=O)N[C@@H](CCC(N)=O)C(=O)N[C@@H](Cc1c[nH]c2ccccc12)C(=O)N[C@@H](CC(C)C)C(=O)N[C@@H](CC(C)C)C(=O)N[C@@H](CO)C(=O)N[C@H](C(N)=O)[C@@H](C)O)C(C)C` [Example 1, N^ε16-[(4S)-4-carboxy-4-[[(4S)-4-carboxy-4-[[2-[2-[2-[[2-[2-[2-[[(4S)-4-carboxy-4-(17-carboxyheptadecanoylamino)butanoyl]amino]ethoxy]ethoxy]acetyl]amino]ethoxy]ethoxy]acetyl]amino]butanoyl]amino]butanoyl]-[Aib2,Leu10,Lys16,Arg20,Leu27,Ser28]-Glucagon amide] (H-H[Aib]QGTFTSDLSKYLDK([γGlu-γGlu-AEEA-AEEA-γGlu-C18 diacid])RRARDFVQWLLST-NH2; N-terminus assumed), for which the results for the EC50 on human GLP-1 receptor [1] and at human glucagon receptor were 0.008 nM and 0.054 nM, respectively.
Take `CC(C)C[C@H](NC(=O)[C@H](CC(=O)O)NC(=O)[C@H](CC(C)C)NC(=O)[C@H](Cc1ccc(O)cc1)NC(=O)[C@H](CCCCN)NC(=O)[C@H](CO)NC(=O)[C@@H](NC(=O)[C@H](CC(=O)O)NC(=O)[C@H](CO)NC(=O)[C@@H](NC(=O)[C@H](Cc1ccccc1)NC(=O)[C@@H](NC(=O)CNC(=O)[C@H](CCC(N)=O)NC(=O)C(C)(C)NC(=O)[C@@H](N)Cc1c[nH]cn1)[C@@H](C)O)[C@@H](C)O)C(C)C)C(=O)N[C@@H](CCCNC(=N)N)C(=O)N[C@@H](CCCNC(=N)N)C(=O)N[C@@H](C)C(=O)N[C@@H](CCC(N)=O)C(=O)N[C@@H](CC(=O)O)C(=O)N[C@@H](Cc1ccccc1)C(=O)N[C@H](C(=O)N[C@@H](CCC(N)=O)C(=O)N[C@@H](Cc1c[nH]c2ccccc12)C(=O)N[C@@H](CC(C)C)C(=O)N[C@@H](CC(C)C)C(=O)N[C@@H](CCCCNC(=O)COCCOCCNC(=O)COCCOCCNC(=O)CC[C@H](NC(=O)CC[C@H](NC(=O)CC[C@H](NC(=O)CCCCCCCCCCCCCCCCC(=O)O)C(=O)O)C(=O)O)C(=O)O)C(=O)N[C@H](C(N)=O)[C@@H](C)O)C(C)C` [Example 71, N^ε28-[2-[2-[2-[[2-[2-[2-[[(4S)-4-carboxy-4-[[(4S)-4-carboxy-4-[[(4S)-4-carboxy-4-(17-carboxyheptadecanoylamino)butanoyl]amino]butanoyl]amino]butanoyl]amino]ethoxy]ethoxy]acetyl]amino]ethoxy]ethoxy]acetyl]-[Aib2,Val10,Leu16,Leu27,Lys28]-Glucagon amide] (H-H[Aib]QGTFTSDVSKYLDLRRAQDFVQWLLK([AEEA-AEEA-γGlu-γGlu-γGlu-C18 diacid])T-NH2): the figures for the EC50 on human GLP-1 receptor [1] and on human glucagon receptor were 0.004 nM and 0.017 nM, respectively. For the same molecule, the IC50 at human GLP-1 receptor [2] turned out to be 0.7 nM.
